Measured values: patent US11618747B2, “LXR modulators with bicyclic core moiety” (OrsoBio, Inc., priority 2018, dated 2023)

Columns and labels:
[1] = biological target: T1, LXRβ ligand-binding domain (Homo sapiens, UniProt P55055, DUP175-175); experiment: TR-FRETβ activity assay (NCoA3 coactivator peptide recruitment); type: biochemical; settings: TR-FRET, 1 μM 24(S)-25-epoxycholesterol prestimulation; read-out: FRETβ (EC50 range)
T1 construct: amino acids 156-461; NP009052; made in house; host or cells: E. coli
T1 sequence (P55055 with tags, fused parts or gaps DUP175-175 limits assumed): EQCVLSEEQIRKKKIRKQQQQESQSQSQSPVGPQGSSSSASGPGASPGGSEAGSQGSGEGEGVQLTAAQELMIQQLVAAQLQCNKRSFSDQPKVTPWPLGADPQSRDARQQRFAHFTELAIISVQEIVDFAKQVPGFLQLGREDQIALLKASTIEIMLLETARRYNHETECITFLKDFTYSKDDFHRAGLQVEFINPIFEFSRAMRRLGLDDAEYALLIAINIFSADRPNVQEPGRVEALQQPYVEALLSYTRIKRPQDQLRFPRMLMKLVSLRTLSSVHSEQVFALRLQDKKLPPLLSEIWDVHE
Method: (§1) The tested compounds were usually dissolved, tested and stored as 20 mM stock solutions in DMSO. Since sulfonyl acetic acid derivatives tend to decarboxylate under these conditions, these stock solutions were prepared, tested and stored as 20 mM DMSO stock solutions containing 100 mM trifluoroacetic Acid (5 equivalents). Sulfonyl acetic acid derivatives are shelf stable as solid at rt for long time as reported by Griesbrecht et al. (Synlett 2010:374) or Faucher et al. (J. Med. Chem. 2004; 47:18).
Recombinant GST-LXRPβ ligand-binding domain (LBD; amino acids 156-461; NP009052; SEQ ID NO:4) was expressed in E. coli and purified via gluthatione-sepharose affinity chromatography. N-terminally biotinylated NCoA3 coactivator peptide (SEQ ID NO:7) was chemically synthesized (Eurogentec). Assays were done in 384 well format (final assay volume of 25 μL/well) in a Tris/HCl buffer (pH 6.8) containing KCl, bovine serum albumin, Triton-X-100 and 1 μM 24(S)-25-epoxycholesterol as LXR-prestimulating agonist. Assay buffer was provided and test articles (potential LXR inverse agonists) were titrated to yield final assay concentrations of 50 μM, 16.7 μM, 5.6 μM, 1.9 μM, 0.6 μM, 0.2 μM, 0.07 μM, 0.02 μM, 0.007 μM, 0.002 μM with one vehicle control. Finally, a detection mix was added containing anti GST-Tb cryptate (CisBio; 610SAXLB) and Streptavidin-XL665 (CisBio; 610SAXLB) as fluorescent donor and acceptor, respectively, as well as the coactivator peptide and LXRβ-LBD protein (SEQ ID NO:4). The reaction was mixed thoroughly, equilibrated for 1 h at 4° C. and vicinity of LXRβ and coactivator peptide was detected by measurement of fluorescence in a VictorX4 multiplate reader (PerkinElmer Life Science) using 340 nm as excitation and 615 and 665 nm as emission wavelengths. Assays were performed in triplicates.
Final Assay Concentrations of Components:
240 mM KCl, 1 μg/μL BSA, 0.002% Triton-X-100, […] anti GST-Tb cryptate, 2.5 ng/μL Streptavidin-XL665, coactivator peptide (400 nM), LXRβ protein (530 μg/mL, i.e. 76 nM).

full length (FL) LXRα = biological target: T2, full length (FL) LXRα (Homo sapiens, UniProt Q13133); experiment: LXR Gal4 reporter transient transfection assay (FL-M2H Gal4α); type: cell-based; settings: HEK293 cells, full length LXRα; read-out: FL-M2H Gal4α (EC50 range)
T2 construct: the full length (FL) proteins of LXRα (amino acids 1-447); NP005684; expressed in transfected cells; host or cells: HEK293
T2 sequence (Q13133 1-447): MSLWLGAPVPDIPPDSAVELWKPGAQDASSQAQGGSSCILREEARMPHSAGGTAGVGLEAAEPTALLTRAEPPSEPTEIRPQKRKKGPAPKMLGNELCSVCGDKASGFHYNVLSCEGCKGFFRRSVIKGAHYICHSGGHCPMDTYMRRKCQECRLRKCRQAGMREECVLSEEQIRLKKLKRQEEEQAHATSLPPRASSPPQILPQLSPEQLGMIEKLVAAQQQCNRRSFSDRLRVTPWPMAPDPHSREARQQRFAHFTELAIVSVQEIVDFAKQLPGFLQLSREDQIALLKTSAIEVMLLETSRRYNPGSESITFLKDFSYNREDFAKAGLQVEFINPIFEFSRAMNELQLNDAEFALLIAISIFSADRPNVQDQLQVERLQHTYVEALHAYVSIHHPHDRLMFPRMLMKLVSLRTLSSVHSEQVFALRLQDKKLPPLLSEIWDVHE
Method: as §1
(§2) LXR Gal4 Reporter Transient Transfection Assays
(§3) LXRα and LXRβ activity status was determined via detection of interaction with coactivator and corepressor proteins in mammalian two-hybrid experiments (M2H). For this, via transient transfection the full length (FL) proteins of LXRα (amino acids 1-447; NP005684; SEQ ID NO:1) or LXRβ-(amino acids 1-461; NP009052; SEQ ID NO:2) or the ligand-binding domains (LBD) of LXRα (amino acids 155-447 SEQ ID NO:3) or LXRβ (amino acids 156-461; SEQ ID NO:4) were expressed from pCMV-AD (Stratagene) as fusions to the transcriptional activation domain of NFkB. As cofactors, domains of either the steroid receptor coactivator 1 (SRC1; amino acids 552-887; SEQ ID NO:5) or of the corepressor NCoR (amino acids 1906-2312; NP006302; SEQ ID NO:6) were expressed as fusions to the DNA binding domain of the yeast transcription factor GAL4 (from pCMV-BD; Stratagene). Interaction was monitored via activation of a coexpressed Firefly Luciferase Reporter gene under control of a promoter containing repetitive GAL4 response elements (vector pFRLuc; Stratagene). Transfection efficiency was controlled via cotransfection of constitutively active pRL-CMV Renila reniformis luciferase reporter (Promega). HEK293 cells were grown in minimum essential medium (MEM) with 2 mM L-glutamine and Earle's balanced salt solution supplemented with 8.3% fetal bovine serum, 0.1 mM non-essential amino acids, 1 mM sodium pyruvate, at 37° C. in 5% CO2. 3.5×10^4 cells/well were plated in 96-well cell culture plates in growth medium supplemented with 8.3% fetal bovine serum for 16-20 h to ˜90% confluency. For transfection, medium was taken off and LXR and cofactor expressing plasmids as well as the reporter plasmids are added in 30 μL OPTIMEM/well including polyethylene-imine (PEI) as vehicle. Typical amounts of plasmids transfected/well: pCMV-AD-LXR (5 ng), pCMV-BD-cofactor (5 ng), pFR-Luc (100 ng), pRL-CMV (0.5 ng). Compound stocks were prepared in DMSO, prediluted in MEM to a total volume of 120 μL, and added 4 h after addition of the transfection mixture (final vehicle concentration not exceeding 0.2%). Cells were incubated for additional 16 h, lysed for 10 min in 1× Passive Lysis Buffer (Promega) and Firefly and Renilla luciferase activities were measured sequentially in the same cell extract using buffers containing D-luciferine and coelenterazine, respectively. Measurements of luminescence were done in a BMG-luminometer.

full length (FL) LXRβ = biological target: T3, full length (FL) LXRβ (Homo sapiens, UniProt P55055, DUP175-175); experiment: LXR Gal4 reporter transient transfection assay (FL-M2H Gal4β); type: cell-based; settings: HEK293 cells, full length LXRβ; read-out: FL-M2H Gal4β (EC50 range)
T3 construct: the full length (FL) proteins of LXRα (amino acids 1-447); NP005684; NP009052; expressed in transfected cells; host or cells: HEK293
T3 sequence (P55055 with tags, fused parts or gaps DUP175-175): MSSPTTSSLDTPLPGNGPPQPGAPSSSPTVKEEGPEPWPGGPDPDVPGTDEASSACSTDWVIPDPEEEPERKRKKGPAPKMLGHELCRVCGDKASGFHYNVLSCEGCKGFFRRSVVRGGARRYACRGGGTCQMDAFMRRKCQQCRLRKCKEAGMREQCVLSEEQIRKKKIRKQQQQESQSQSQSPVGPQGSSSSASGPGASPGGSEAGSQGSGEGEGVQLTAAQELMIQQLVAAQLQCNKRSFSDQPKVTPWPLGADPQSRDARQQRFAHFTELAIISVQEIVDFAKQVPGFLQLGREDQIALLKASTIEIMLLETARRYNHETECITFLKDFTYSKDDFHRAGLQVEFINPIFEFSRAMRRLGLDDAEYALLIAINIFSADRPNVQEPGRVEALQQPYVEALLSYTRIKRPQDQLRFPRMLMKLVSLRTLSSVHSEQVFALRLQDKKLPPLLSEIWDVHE
Method: as §1, §2, §3

Structure (SMILES)	EC50 [1]	EC50 (full length (FL) LXRα)	EC50 (full length (FL) LXRβ)
Cc1ccc(S(=O)(=O)n2c(-c3cccc(N4CC(C(=O)O)C4)c3)c(-c3ccsc3C=O)c3cc(F)ccc32)cc1 [3/5]	100 to 1000 nM	100 to 1000 nM	100 to 1000 nM
Cc1ccc(S(=O)(=O)n2c(-c3cccc(C4CC5(CC(C(=O)O)C5)C4)c3)c(-c3ccsc3C#N)c3cc(F)ccc32)cc1 (centres unmarked) [3/65]	100 to 1000 nM	< 100 nM	< 100 nM
CC1CCN(S(=O)(=O)n2c(-c3cccc(-c4ccc(C(=O)O)cc4Cl)c3)c(-c3ccsc3C#N)c3cc(F)ccc32)CC1 [3/21]	100 to 1000 nM	< 100 nM	< 100 nM
Cc1ccc(S(=O)(=O)n2c(-c3cccc(-c4cc(F)c(C(=O)O)cc4Cl)c3)c(-c3ccsc3C#N)c3cc(F)ccc32)cc1 [12/2]	100 to 1000 nM	< 100 nM	< 100 nM
N#Cc1cccc(C#N)c1-c1c(-c2cccc(-c3ccc(C(=O)O)cc3Cl)c2)n(S(=O)(=O)c2ccc(Cl)cc2)c2ccc(F)cc12 [11/55]	< 100 nM	< 100 nM	< 100 nM
N#Cc1sccc1-c1c(-c2cccc(N3CC(C(=O)O)C3)c2)n(S(=O)(=O)c2ccc(Cl)cc2)c2ccc(F)cc12 [5/7]	100 to 1000 nM	100 to 1000 nM	< 100 nM
Cc1ccc(S(=O)(=O)n2c(-c3cccc(-c4cc(C(=O)O)n[nH]4)c3)c(-c3ccsc3C#N)c3cc(F)ccc32)cc1 [12/6]	1000 to 10000 nM	100 to 1000 nM	1000 to 10000 nM
Cc1ccc(S(=O)(=O)n2c(-c3cccc(N4CCC(C(=O)O)CC4)c3)c(-c3ccsc3C#N)c3cc(F)ccc32)cc1 [3/38]	100 to 1000 nM	< 100 nM	< 100 nM
Cc1ccc(S(=O)(=O)n2c(-c3cccc(C4(C)CC4C(=O)O)c3)c(-c3ccsc3C#N)c3cc(F)ccc32)cc1 (centres unmarked) [3/1]	100 to 1000 nM	100 to 1000 nM	100 to 1000 nM
Cc1cccc(C)c1-c1c(-c2cccc(-c3ccc(C(=O)O)cc3Cl)c2)n(S(=O)(=O)c2ccc(C(F)F)cc2)c2ccc(F)cc12 [11/14]	< 100 nM	< 100 nM	< 100 nM
Cc1ccc(S(=O)(=O)n2c(-c3cccc(-c4cc(F)c(CO)c(S(C)(=O)=O)c4)c3)c(-c3ccsc3C#N)c3cc(F)ccc32)cc1 [2/16]	< 100 nM	< 100 nM	< 100 nM
O=C(O)c1ccc(-c2cccc(-c3c(-c4ccccc4C4(F)CNC4)c4cc(F)ccc4n3S(=O)(=O)c3ccc(C(F)F)cc3)c2)c(Cl)c1 [3/61]	100 to 1000 nM	100 to 1000 nM	100 to 1000 nM
Cc1ccc(S(=O)(=O)n2c(-c3cccc(N4CC(C(=O)O)C4)c3)c(-c3ccsc3C#N)c3sccc32)cc1 [4/3]	1000 to 10000 nM	< 100 nM	< 100 nM
Cc1ccc(S(=O)(=O)n2c(-c3cccc(-c4ccc(C(=O)O)cc4Cl)c3)c(-c3cccc(C)c3C#N)c3cc(F)ccc32)cc1 [11/2]	< 100 nM	< 100 nM	< 100 nM
Cc1ccc(S(=O)(=O)n2c(-c3cccc(N4CC(C(=O)O)C4)c3)c(-c3ccccc3C3COC3)c3cc(F)ccc32)cc1 [3/31]	100 to 1000 nM	100 to 1000 nM	100 to 1000 nM
COc1ccc(S(=O)(=O)n2c(-c3cccc(N4CC(C(=O)O)C4)c3)c(-c3ccsc3C#N)c3cc(F)ccc32)cc1 [3/33]	1000 to 10000 nM	100 to 1000 nM	< 100 nM
CC(O)(C(=O)O)c1ccc(-c2cccc(-c3c(-c4c(C#N)cccc4C#N)c4cc(F)ccc4n3S(=O)(=O)c3ccc(C(F)F)cc3)c2)c(Cl)c1 (centres unmarked) [11/60]	–	< 100 nM	< 100 nM
Cc1cccc(C#N)c1-c1c(-c2cccc(-c3ccc(C(=O)O)cc3Cl)c2)n(S(=O)(=O)c2ccc(C(F)F)cc2)c2ccc(F)cc12 (single isomer, unassigned) [41/2, 2-chloro-3′-(3-(2-cyano-6-methylphenyl)-1-((4-(difluoro-methyl)phenyl)sulfonyl)-5-fluoro-1H-indol-2-yl)-[1,1′-biphenyl]-4-carboxylic Acid]	< 100 nM	< 100 nM	–
N#Cc1sccc1-c1c(-c2cccc(N3CC(C(=O)O)C3)c2)n(S(=O)(=O)c2ccc(OC(F)F)cc2)c2ccc(F)cc12 [3/11]	1000 to 10000 nM	100 to 1000 nM	–
Cc1ccc(S(=O)(=O)n2c(-c3cccc(-c4cc(C)c(C(=O)O)cc4Cl)c3)c(-c3ccsc3C#N)c3cc(F)ccc32)cc1 [Example 12, 2-Chloro-3′-(3-(2-cyanothiophen-3-yl)-5-fluoro-1-tosyl-1H-indol-2-yl)-5-methyl-[1,1′-biphenyl]-4-carboxylic acid]	100 to 1000 nM	–	< 100 nM
